These results are taken from ChEMBL document CHEMBL2157946, “Hydrolytic instability of the important orexin 1 receptor antagonist SB-334867: possible confounding effects on in vivo and in vitro studies” (Bioorg Med Chem Lett, 2012).

The nature of data set [1]: Chemical stability of the compound stored under argon in tightly sealed amber bottle at 15 degC assessed as 1-(2-hydroxy-4-{[(1,5-naphthyridin-4-yl)carbamoyl]amino} phenyl)acetamide formation after 10 months by NMR analysis. Type of data set: physicochemical. The settings on record: 7305 h.
A short description of data set [2]: Chemical stability of the compound stored under argon in tightly sealed amber bottle at 15 degC assessed as 1-(2-hydroxy-4-{[(1,5-naphthyridin-4-yl)carbamoyl]amino} phenyl)acetamide formation after 10 months by mass spectrometry analysis. It is filed as physicochemical. The settings on record: 7305 h.
Data set [3] addresses T1, Orexin/Hypocretin receptor type 1 (Homo sapiens, UniProt O43613).
T1 sequence (O43613 whole entry): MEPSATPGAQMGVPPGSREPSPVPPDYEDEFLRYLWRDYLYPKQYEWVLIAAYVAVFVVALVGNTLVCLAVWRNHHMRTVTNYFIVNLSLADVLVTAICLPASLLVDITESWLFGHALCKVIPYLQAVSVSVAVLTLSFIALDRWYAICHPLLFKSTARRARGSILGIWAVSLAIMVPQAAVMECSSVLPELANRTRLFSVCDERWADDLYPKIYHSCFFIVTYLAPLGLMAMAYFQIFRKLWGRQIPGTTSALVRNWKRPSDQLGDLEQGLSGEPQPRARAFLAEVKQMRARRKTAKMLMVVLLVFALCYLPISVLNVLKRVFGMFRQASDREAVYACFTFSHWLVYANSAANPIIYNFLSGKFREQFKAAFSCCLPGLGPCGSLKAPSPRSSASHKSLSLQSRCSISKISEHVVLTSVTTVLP
Briefly: Antagonist activity at OX1 receptor expressed in RD-HGA16 cells assessed as inhibition of orexin A-induced intracellular calcium mobilization after 15 mins by FLIPR assay. It is filed as functional, cell-based. (Calcium assays in cells follow changes in intracellular calcium, usually with a dye or a luminescent sensor.)

The nature of data set [4]: Solubility of the compound in ACSF at 1.6 mg at room temperature after 45 mins by sonication method. It is filed as physicochemical. The settings on record: in vivo, 0.75 h.
The nature of data set [5]: Chemical stability of the compound as refrigerated solution in 100 % DMSO stored in teflon sealed container up to 3 months by NMR analysis. Type of data set: physicochemical.
Data set [6] has as its system Rattus norvegicus. Briefly: Antagonist activity at OX1 receptor in rat assessed as decrease in alcoholic response at 20 mg/kg, ip after 30 mins. It is filed as functional. On the set-up: scale not given: the % may be the effect or the level left. The settings on record: route intraperitoneal.
Data set [7] in a line: Solubility of the compound in DMSO at 7.5 mg at room temperature after 15 mins by sonication method in presence of encapsin. Type of data set: physicochemical. The settings on record: in vivo, 0.25 h.
For data set [8], the system named is Rattus norvegicus. In words: Antagonist activity at OX1 receptor in rat assessed as decrease in alcoholic response at 5 mg/kg, ip. Type of data set: functional. Set-up: scale not given: the % may be the effect or the level left. The note with it: route intraperitoneal.

Molecules are shown by their SMILES. A value given as a limit tells only on which side of the number the result lay.

On to `Cc1nc2ccc(NC(=O)Nc3ccnc4cccnc34)cc2o1.Cl`, for which the Stability result in data set [1] and in data set [2] was “Unstable” throughout.

Consider `CC(=O)Nc1ccc(NC(=O)Nc2ccnc3cccnc23)cc1O`, for which, in data set [3], the IC50 is over 30 µM.

With `Cc1nc2ccc(NC(=O)Nc3ccnc4cccnc34)cc2o1`, the solubility entry in data set [4] and in data set [7] was “Insoluble” in each case. Besides, the Stability result in data set [5] was “Stable”. The Activity came out at 50% in data set [6] and 75% in data set [8].

By IC50 is commonly meant the point on the concentration scale where inhibition reaches its midpoint.
